Experimental data published in patent US8329686B2, “Isatin analogues and uses therefor” (Washington University, priority 2006, dated 2012).

What was measured:
caspase 1 = biological target: T1, caspase 1 (Homo sapiens, UniProt P29466); assay: Enzyme inhibition assay, caspase 1 (fluorogenic Ac-YVAD-AMC); format: biochemical; settings: Table 6; read-out: IC50 (nM) caspase-1
T1 construct: purchased BIOMOL Research Laboratories (Plymouth Meeting, Pa.)
T1 sequence (P29466 120-297 limits assumed): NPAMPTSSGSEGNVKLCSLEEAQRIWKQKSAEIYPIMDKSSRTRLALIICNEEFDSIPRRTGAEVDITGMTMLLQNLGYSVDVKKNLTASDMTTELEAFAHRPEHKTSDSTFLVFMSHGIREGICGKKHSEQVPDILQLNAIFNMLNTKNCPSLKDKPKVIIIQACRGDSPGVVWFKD
T1 sequence (P29466 317-404 limits assumed): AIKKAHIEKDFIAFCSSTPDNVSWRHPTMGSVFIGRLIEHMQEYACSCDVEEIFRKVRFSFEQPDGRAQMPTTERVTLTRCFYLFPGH
Protocol: (§1) Enzyme Assays. Inhibition of recombinant human caspase-3 and other caspases by the isatin analogues was assessed using a fluorometric assay by measuring the accumulation of a fluorogenic product, 7-amino-4-methylcoumarin (7-AMC).
(§2) Enzyme Inhibition Assays. Recombinant human caspases (3, 6, 7, and 8) and their peptide-specific substrates (Ac-DEVDAMC, Ac-VEID-AMC, Ac-DEVD-AMC, and Ac-IETD-AMC, respectively) were purchased from Sigma-Aldrich (St. Louis, Mo.) with the exception of caspase 1 and its substrate (Ac-YVAD-AMC), which were obtained from BIOMOL Research Laboratories (Plymouth Meeting, Pa.). The enzymatic activity of caspases was determined by measuring the accumulation of the fluorogenic product 7-amino-4-methylcoumarin (AMC). All assays were prepared in 96-well format at a volume of 210 μL per well and consisted of 100 mM Na+ HEPES (pH 7.4), 10% sucrose, 100 mM NaCl, 0.1% CHAPS, 5 mM 2-mercaptoethanol, 2 mM EDTA, 10 μM Ac-YVAD-AMC (caspase 1); 20 mMNa^+ HEPES (pH 7.4), 10% sucrose, 100 mMNaCl, 0.1% CHAPS, 2 mM EDTA, 10 μM Ac-DEVD-AMC (caspase 3); 20 mM Na^+ HEPES (pH 7.4), 10% sucrose, 100 mM NaCl, 0.1% CHAPS, 2 mM EDTA, 10 μM Ac-VEID-AMC (caspase 6); 20 mM Na+ HEPES (pH 7.4), 100 mM NaCl, 10% sucrose, 0.1% CHAPS, 5 mM 2-mercaptoethanol, 2 mM EDTA, 10 μM Ac-DEVD-AMC (caspase 7); 20 mM Na+ HEPES (pH 7.4), 10% sucrose, 100 mM NaCl, 0.1% CHAPS, 2 mM EDTA, 10 μM Ac-IETD-AMC (caspase 8).
(§3) Recombinant caspases were first assayed to determine the optimal concentration for each experiment. Optimal concentrations were based in the linear range of the enzyme activation curves. Peptide inhibitors with known IC50 values were tested together with the compounds as a control for each caspase assay. […] Peptide and nonpeptide inhibitors were dissolved in DMSO, and a 2 serial dilution was performed prior to screening in order to obtain desired concentrations. 10 μL was added to each well containing 100 μL caspase solution and allowed to incubate on ice for 30 min. […] The final concentration of DMSO in all wells was 5% of the total volume. In caspase-1 and caspase-7 assays, 10 mM 2-mercaptoethanol was added to the substrate solution for full activation of the enzymes.
(§4) Compounds were tested in duplicate, and IC50 curves were calculated for all inhibitors assayed. Final IC50s were the average of three independent experiments.

caspase-3 [1] = biological target: T2, caspase-3 (Homo sapiens, UniProt P42574); assay: Enzyme inhibition assay, caspase 3 (fluorogenic Ac-DEVD-AMC); format: biochemical; settings: read-out: IC50 for caspase-3
T2 construct: purchased Sigma-Aldrich (St. Louis, Mo.)
T2 sequence (P42574 29-175 limits assumed): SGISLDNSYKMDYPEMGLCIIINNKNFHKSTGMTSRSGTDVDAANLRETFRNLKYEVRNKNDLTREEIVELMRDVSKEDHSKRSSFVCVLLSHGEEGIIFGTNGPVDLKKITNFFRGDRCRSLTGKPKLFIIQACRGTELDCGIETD
T2 sequence (P42574 176-277 limits assumed): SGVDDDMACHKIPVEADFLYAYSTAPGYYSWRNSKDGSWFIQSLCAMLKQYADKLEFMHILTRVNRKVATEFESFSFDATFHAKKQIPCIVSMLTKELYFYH
Protocol: as §1, §2, §3, §4

caspase 6 = biological target: T3, caspase 6 (Homo sapiens, UniProt P55212); assay: Enzyme inhibition assay, caspase 6 (fluorogenic Ac-VEID-AMC); format: biochemical; settings: Table 6; read-out: IC50 (nM) caspase-6
T3 construct: purchased Sigma-Aldrich (St. Louis, Mo.)
T3 sequence (P55212 24-179 limits assumed): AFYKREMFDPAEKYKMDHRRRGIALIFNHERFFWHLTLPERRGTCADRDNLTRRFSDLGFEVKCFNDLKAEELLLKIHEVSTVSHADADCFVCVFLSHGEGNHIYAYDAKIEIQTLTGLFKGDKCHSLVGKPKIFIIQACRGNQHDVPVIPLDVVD
T3 sequence (P55212 194-293 limits assumed): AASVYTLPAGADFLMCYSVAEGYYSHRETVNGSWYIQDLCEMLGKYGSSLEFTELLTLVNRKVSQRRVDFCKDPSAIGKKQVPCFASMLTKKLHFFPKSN

caspase 7 = biological target: T4, caspase 7 (Homo sapiens, UniProt P55210); assay: Enzyme inhibition assay, caspase 7 (fluorogenic Ac-DEVD-AMC); format: biochemical; settings: Table 6; read-out: IC50 (nM) caspase-7
T4 construct: purchased Sigma-Aldrich (St. Louis, Mo.)
T4 sequence (P55210 24-198 limits assumed): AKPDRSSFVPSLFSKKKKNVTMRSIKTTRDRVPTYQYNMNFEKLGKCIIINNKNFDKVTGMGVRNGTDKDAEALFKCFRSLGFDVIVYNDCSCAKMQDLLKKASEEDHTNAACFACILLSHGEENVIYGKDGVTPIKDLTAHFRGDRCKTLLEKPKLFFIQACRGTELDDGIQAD
T4 sequence (P55210 207-303 limits assumed): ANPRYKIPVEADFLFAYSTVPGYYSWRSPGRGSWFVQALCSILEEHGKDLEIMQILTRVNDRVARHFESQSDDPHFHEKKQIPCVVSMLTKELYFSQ

caspase 8 = biological target: T5, caspase 8 (Homo sapiens, UniProt Q14790); assay: Enzyme inhibition assay, caspase 8 (fluorogenic Ac-IETD-AMC); format: biochemical; settings: Table 6; read-out: IC50 (nM) caspase-8
T5 construct: purchased Sigma-Aldrich (St. Louis, Mo.)
Protocol: as §1, §2, §3, §4

caspase-3 [2] = biological target: T2, caspase-3; assay: Enzyme kinetic studies versus Ac-DEVD-AMC; format: biochemical
Protocol: Enzyme Kinetic Studies. The inhibition profile for compound 21c was determined for caspase-3 in the assay buffer. The concentration of Ac-DEVD-AMC was varied from 6.25 to 100 μM, and the concentration of 21c was varied from 0 to 20 nM. The kinetic parameters of 21c were obtained by fitting initial-rate data to
[formula] where v is the observed velocity, S is the substrate concentration, Vm is the velocity at saturating substrate, Km is the Michaelis constant of the substrate, I is the inhibitor concentration, and Ki is the dissociation constant of the inhibitor from the E·I complex. The data were analyzed using GraFit 4.0 (Erithacus Software, Staines, U.K.)
Kinetic studies were also conducted in order to determine the mechanism of inhibition of caspase-3 activity by compound 21c.

[3] = Biodistribution of [^18F]WC-II-89 in normal and cycloheximide-treated rats; format: in vivo, Sprague-Dawley rats
Protocol: All animal studies were performed in accordance with the regulations of the Washington University Institutional Animal Care and Use Committee. Mature male Sprague Dawley rats from Charles River Laboratories were briefly anesthetized with 1-2% isoflurane in oxygen. […] Treated rats also received 5 mg/kg cycloheximide in saline via the tail vein three hours prior to radiotracer administration in order to induce caspase-mediated liver apoptosis. At set time-points following radiopharmaceutical injection, rats were again anesthetized and euthanized. Target and non-target organs were removed, weighed, and the radioactivity was counted using a Beckman Gamma 8000 well counter. Standard dilutions of the injected dose were counted along with the samples and uptake was calculated and reported as percent injected dose per gram (% ID/g).
This model, which uses the protein synthesis inhibitor, cycloheximide (CHX), was previously used in the evaluation of radiolabeled annexin V analogs (37). Tissue morphology and TUNEL staining studies have shown that cycloheximide induces apoptosis in rat liver in both a dose-dependent and time-dependent manner. Within 3 hours of treatment with 1.5, 3, or 10 mg of cycloheximide per kilogram of body weight, apoptosis was induced in rat liver (35, 36). Therefore, we chose 3 hours treatment of 5 mg/kg to induce the maximum apoptosis in rat liver, expecting a high level of caspase-3 activation.
In general, the initial uptake was higher for CHX treated rats than control rats. However, the difference between control and treated rats was reduced with time with the exception of the liver and spleen.

[4] = MicroPET imaging of [^18F]WC-II-89 in control and cycloheximide-treated rat; format: in vivo; settings: cycloheximide 3-hour pretreated rat versus control, 10-60 minutes post-i.v. injection
Protocol: MicroPET imaging studies were performed using a MicroPET Focus 220 and MicroPET Focus 120 scanner (Siemens/CTI, Knoxyille, Tenn.). A control and cycloheximide-treated (5 mg/kg, 3 hours pretreated) rat were anesthetized and a catheter inserted in the jugular vein. […] MicroPET images were reconstructed with OSEM-2D data analysis software package (Siemens/CTI, Knoxyille, Tenn.).
This was also confirmed by Western blot analysis of the rat livers following completion of the microPET imaging study.

T5 sequence (Q14790 217-374 limits assumed): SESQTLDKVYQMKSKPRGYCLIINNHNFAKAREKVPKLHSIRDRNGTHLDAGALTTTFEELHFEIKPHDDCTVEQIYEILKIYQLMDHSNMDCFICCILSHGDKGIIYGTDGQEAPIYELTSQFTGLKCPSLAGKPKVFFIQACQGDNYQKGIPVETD
T5 sequence (Q14790 385-479 limits assumed): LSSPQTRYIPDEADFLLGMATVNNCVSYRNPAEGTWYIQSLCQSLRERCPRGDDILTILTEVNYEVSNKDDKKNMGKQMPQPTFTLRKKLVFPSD

Molecule `COc1ccc(CN2C(=O)C(=O)c3cc(S(=O)(=O)N4CCCC4COc4cccnc4)ccc32)cc1` (centres unmarked) [Compound 21c, 1-(4-Methoxybenzyl)-5-(2-(pyridin-3-yl-oxymethyl)-pyrrolidine-1-sulfonyl)-1H-indole-2,3-dione] has an IC50 (caspase 1) of over 10000 nM, an IC50 (caspase-3 [1]) of 3.9 nM and an IC50 (caspase 6) of over 5000 nM. For the same molecule, the IC50 (caspase 7) was 15.1 ± 1.2 nM, the IC50 (caspase 8) was over 50000 nM and the Ki (caspase-3 [2]; competitive versus Ac-DEVD-AMC, read-out: calculated Ki value) was 4.4 nM. The “mechanism of inhibition of caspase-3 activity” value (caspase-3 [2]; versus Ac-DEVD-AMC) was “competitive inhibition”.
In the case of `O=C1C(=O)N(Cc2ccc(OCC[18F])cc2)c2ccc(S(=O)(=O)N3CCC[C@H]3COc3ccccc3)cc21` [[^18F]WC-II-89], the “% I.D./gram” value ([3]; blood, control rats, 5 min.) is reported as 2.70 ± 0.21 % I.D./gram, the “% I.D./gram” value ([3]; blood, control rats, 1 hr.) is reported as 0.11 ± 0.01 % I.D./gram and the “% I.D./gram” value ([3]; blood, control rats, 2 hr.) is reported as 0.06 ± 0.01 % I.D./gram. The “% I.D./gram” value ([3]; blood, cycloheximide-treated rats, 5 min.) was 3.66 ± 0.40 % I.D./gram, the “% I.D./gram” value ([3]; blood, cycloheximide-treated rats, 1 hr.) was 0.16 ± 0.01 % I.D./gram and the “% I.D./gram” value ([3]; blood, cycloheximide-treated rats, 2 hr.) was 0.07 ± 0.00 % I.D./gram. The “% I.D./gram” value ([3]; bone, control rats, 5 min.) was 0.44 ± 0.04 % I.D./gram, the “% I.D./gram” value ([3]; bone, control rats, 1 hr.) was 0.13 ± 0.02 % I.D./gram and the “% I.D./gram” value ([3]; bone, control rats, 2 hr.) was 0.15 ± 0.06 % I.D./gram. The “% I.D./gram” value ([3]; bone, cycloheximide-treated rats, 5 min.) was 0.66 ± 0.06 % I.D./gram, the “% I.D./gram” value ([3]; bone, cycloheximide-treated rats, 1 hr.) was 0.12 ± 0.01 % I.D./gram and the “% I.D./gram” value ([3]; bone, cycloheximide-treated rats, 2 hr.) was 0.13 ± 0.03 % I.D./gram. The “uptake of radioactivity in bone” value ([3]; bone, defluorination) was “very low uptake”, the “% I.D./gram” value ([3]; fat, control rats, 5 min.) was 0.12 ± 0.02 % I.D./gram and the “% I.D./gram” value ([3]; fat, control rats, 1 hr.) was 0.15 ± 0.02 % I.D./gram. For the same molecule, the “% I.D./gram” value ([3]; fat, control rats, 2 hr.) was 0.07 ± 0.01 % I.D./gram, the “% I.D./gram” value ([3]; fat, cycloheximide-treated rats, 5 min.) was 0.09 ± 0.03 % I.D./gram and the “% I.D./gram” value ([3]; fat, cycloheximide-treated rats, 1 hr.) was 0.14 ± 0.01 % I.D./gram. For the same molecule, the “% I.D./gram” value ([3]; fat, cycloheximide-treated rats, 2 hr.) was 0.09 ± 0.01 % I.D./gram, the “% I.D./gram” value ([3]; kidney, control rats, 5 min.) was 1.25 ± 0.14 % I.D./gram and the “% I.D./gram” value ([3]; kidney, control rats, 1 hr.) was 0.53 ± 0.07 % I.D./gram. For the same molecule, the “% I.D./gram” value ([3]; kidney, control rats, 2 hr.) was 0.18 ± 0.04 % I.D./gram, the “% I.D./gram” value ([3]; kidney, cycloheximide-treated rats, 5 min.) was 1.18 ± 0.08 % I.D./gram and the “% I.D./gram” value ([3]; kidney, cycloheximide-treated rats, 1 hr.) was 0.55 ± 0.05 % I.D./gram. The “% I.D./gram” value ([3]; kidney, cycloheximide-treated rats, 2 hr.) was 0.23 ± 0.05 % I.D./gram, the “uptake in liver, treated rats higher than control” value ([3]; liver, 1-hour post-i.v. injection, cycloheximide-treated vs control) was 94% and the “% I.D./gram” value ([3]; liver, control rats, 5 min.) was 3.13 ± 0.26 % I.D./gram. The “% I.D./gram” value ([3]; liver, control rats, 1 hr.) was 0.38 ± 0.06 % I.D./gram, the “% I.D./gram” value ([3]; liver, control rats, 2 hr.) was 0.16 ± 0.02 % I.D./gram and the “% I.D./gram” value ([3]; liver, cycloheximide-treated rats, 5 min.) was 4.02 ± 0.45 % I.D./gram. The “% I.D./gram” value ([3]; liver, cycloheximide-treated rats, 1 hr.) was 0.73 ± 0.12 % I.D./gram, the “% I.D./gram” value ([3]; liver, cycloheximide-treated rats, 2 hr.) was 0.22 ± 0.03 % I.D./gram and the “% I.D./gram” value ([3]; lung, control rats, 5 min.) was 1.42 ± 0.34 % I.D./gram. For the same molecule, the “% I.D./gram” value ([3]; lung, control rats, 1 hr.) was 0.18 ± 0.03 % I.D./gram, the “% I.D./gram” value ([3]; lung, control rats, 2 hr.) was 0.08 ± 0.01 % I.D./gram and the “% I.D./gram” value ([3]; lung, cycloheximide-treated rats, 5 min.) was 2.08 ± 0.23 % I.D./gram. For the same molecule, the “% I.D./gram” value ([3]; lung, cycloheximide-treated rats, 1 hr.) was 0.23 ± 0.03 % I.D./gram, the “% I.D./gram” value ([3]; lung, cycloheximide-treated rats, 2 hr.) was 0.11 ± 0.02 % I.D./gram and the “% I.D./gram” value ([3]; muscle, control rats, 5 min.) was 0.14 ± 0.01 % I.D./gram. For the same molecule, the “% I.D./gram” value ([3]; muscle, control rats, 1 hr.) was 0.08 ± 0.01 % I.D./gram, the “% I.D./gram” value ([3]; muscle, control rats, 2 hr.) was 0.03 ± 0.00 % I.D./gram and the “% I.D./gram” value ([3]; muscle, cycloheximide-treated rats, 5 min.) was 0.09 ± 0.00 % I.D./gram. For the same molecule, the “% I.D./gram” value ([3]; muscle, cycloheximide-treated rats, 1 hr.) was 0.10 ± 0.02 % I.D./gram, the “% I.D./gram” value ([3]; muscle, cycloheximide-treated rats, 2 hr.) was 0.06 ± 0.00 % I.D./gram and the “uptake in spleen, treated rats higher than control” value ([3]; spleen, 1-hour post-i.v. injection, cycloheximide-treated vs control) was 184%. For the same molecule, the “% I.D./gram” value ([3]; spleen, control rats, 5 min.) was 1.14 ± 0.08 % I.D./gram, the “% I.D./gram” value ([3]; spleen, control rats, 1 hr.) was 0.15 ± 0.05 % I.D./gram and the “% I.D./gram” value ([3]; spleen, control rats, 2 hr.) was 0.06 ± 0.01 % I.D./gram. For the same molecule, the “% I.D./gram” value ([3]; spleen, cycloheximide-treated rats, 5 min.) was 2.24 ± 0.41 % I.D./gram, the “% I.D./gram” value ([3]; spleen, cycloheximide-treated rats, 1 hr.) was 0.43 ± 0.05 % I.D./gram and the “% I.D./gram” value ([3]; spleen, cycloheximide-treated rats, 2 hr.) was 0.11 ± 0.03 % I.D./gram. The “% I.D./gram” value ([3]; thymus, control rats, 5 min.) was 0.23 ± 0.07 % I.D./gram, the “% I.D./gram” value ([3]; thymus, control rats, 1 hr.) was 0.09 ± 0.01 % I.D./gram and the “% I.D./gram” value ([3]; thymus, control rats, 2 hr.) was 0.04 ± 0.00 % I.D./gram. The “% I.D./gram” value ([3]; thymus, cycloheximide-treated rats, 5 min.) was 0.38 ± 0.10 % I.D./gram, the “% I.D./gram” value ([3]; thymus, cycloheximide-treated rats, 1 hr.) was 0.12 ± 0.02 % I.D./gram and the “% I.D./gram” value ([3]; thymus, cycloheximide-treated rats, 2 hr.) was 0.06 ± 0.01 % I.D./gram. The “microPET uptake in the liver” value [4] was “higher uptake”.
